Assay results as given in US20180344680A1, “COMPOSITIONS AND METHODS FOR TREATMENT, AMELIORATION, AND PREVENTION OF DIABETES-RELATED SKIN ULCERS” (THE ARIZONA BOARD OF REGENTS ON BEHALF OF THE UNIVERSITY OF …, priority 2015, published 2018).
“Also recorded” adds a separate entry of the source.

Tests used:
Type in all cases: in vivo, mouse
[1] = Body weight and blood glucose in STZ-induced diabetic mice; conditions: diabetic Nrf2+/+ mice; 12.5 mg/kg SF or 50 mg/kg CA intraperitoneally every other day; vs untreated STZ
Method: Diabetes mouse model and treatments. […] Briefly, three weeks after STZ injections, fasting glucose levels (FGL, 4 h fast) were measured using the AlphaTRAK system (Abbott Laboratory, North Chicago, Ill.) and mice with a FGL higher than or equal to 250 mg/dL were considered diabetic and included in the study (see, e.g., FIG. 2A and FIG. 3A for a detailed timeline). The mice (n=5-8) were then allocated randomly to each of the indicated treatment groups and received corn oil (control), 12.5 mg/kg SF or 50 mg/kg CA intraperitoneally every two days until skin tissues were harvested.
After induction of diabetes using STZ, diabetic Nrf2^+/+ mice were intraperitoneally injected with corn oil (vehicle control), 12.5 mg/kg SF, or 50 mg/kg CA every other day for 1 week, then the wound surgery was performed and the treatment continued for 2 more weeks (FIG. 3A).

wound skin tissues = experiment: Apoptosis by TUNEL in wound skin tissues of STZ mice
Source text: Diabetes mouse model and treatments. Nrf2^+/+ and Nrf2^-/- C57BL/6 mice were described previously (see, e.g., Jiang T, et al., Diabetes 59:850-860, 2010) and were housed and handled in accordance with the University of Arizona Institutional Animal Care policies. The STZ-induced diabetic model was previously described (see, e.g., Zheng H, et al., Diabetes 60:3055-3066, 2011) and only 8 week old male mice were included in this study. Briefly, three weeks after STZ injections, fasting glucose levels (FGL, 4 h fast) were measured using the AlphaTRAK system (Abbott Laboratory, North Chicago, Ill.) and mice with a FGL higher than or equal to 250 mg/dL were considered diabetic and included in the study (see, e.g., FIG. 2A and FIG. 3A for a detailed timeline). […] Gross wound closure was quantified by ImageJ software, and wound healing was expressed as the percentage of the original wound area that had healed. […] ROS were measured in HaCaT cells using DCF. […] Then, 48 h later, the cells were switched into fresh medium containing 10 μg/mL DCF, incubated 30 min, and fluorescence intensity was measured by flow cytometry. […] For this, 8000 HaCaT cells/well were seeded in LG or HG media, with or without an NRF2 activator, and cell growth was monitored for 72 h. […]

[2] = system: wounds of non-diabetic Nrf2+/+ mice; experiment: Wound closure in non-diabetic mice; conditions: non-diabetic Nrf2+/+ mice treated with SF or CA vs corn oil; up to 14 days
Source text: Diabetes mouse model and treatments. Nrf2^+/+ and Nrf2^-/- C57BL/6 mice were described previously (see, e.g., Jiang T, et al., Diabetes 59:850-860, 2010) and were housed and handled in accordance with the University of Arizona Institutional Animal Care policies. The STZ-induced diabetic model was previously described (see, e.g., Zheng H, et al., Diabetes 60:3055-3066, 2011) and only 8 week old male mice were included in this study. Briefly, three weeks after STZ injections, fasting glucose levels (FGL, 4 h fast) were measured using the AlphaTRAK system (Abbott Laboratory, North Chicago, Ill.) and mice with a FGL higher than or equal to 250 mg/dL were considered diabetic and included in the study (see, e.g., FIG. 2A and FIG. 3A for a detailed timeline). The mice (n=5-8) were then allocated randomly to each of the indicated treatment groups and received corn oil (control), 12.5 mg/kg SF or 50 mg/kg CA intraperitoneally every two days until skin tissues were harvested. One week after the treatments, the mice were anesthetized, their backs were shaved and cleaned. Two wounds were made with a sterile 6 mm skin biopsy punch (Health link, Jacksonville, Fla.) and covered with 3M Tegaderm pads. […] Gross wound closure was quantified by ImageJ software, and wound healing was expressed as the percentage of the original wound area that had healed. […]

| SMILES | blood glucose levels [1] | body weight [1] | apoptosis (TUNEL) (wound skin tissues) | wound closure [2] |
| --- | --- | --- | --- | --- |
| O=CC=Cc1ccccc1 [CA, Cinnamaldehyde] | failed to decrease blood glucose levels | reversed the body weight loss during the initial phase of diabetes | reduced apoptosis to a lesser extent than in Con | No statistically significant differences; also recorded: do not show accelerated wound closure |
| C[S@@+]([O-])CCCCN=C=S [SF, L-sulforaphane] | failed to decrease blood glucose levels | reversed the body weight loss during the initial phase of diabetes | reduced apoptosis to a lesser extent than in Con | No statistically significant differences; also recorded: do not show accelerated wound closure |
